Data as given in US4639433A, “Glycopeptide derivatives” (Eli Lilly and Company, priority 1985, dated 1987).
Values after ≈ are worked out from the molar mass of the structure shown.

Legend:
Staphylococcus aureus = assay: Experimental bacterial infection in mice, ED50; assay type: in vivo; conditions: two doses, administered subcutaneously
[1] = test system: Staphylococcus aureus X400; conditions: agar dilution
Streptococcus pneumoniae = assay: Experimental bacterial infection in mice, ED50; assay type: in vivo; conditions: two doses, administered subcutaneously
Escherichia coli EC14 = conditions: agar dilution
[2] = test system: Streptococcus pyogenes C203; conditions: agar dilution
Streptococcus pyogenes = assay: Experimental bacterial infection in mice, ED50; assay type: in vivo; conditions: two doses, administered subcutaneously
[3] = test system: Klebsiella pneumoniae X68; conditions: agar dilution
[4] = test system: Staphylococcus aureus S13E; conditions: agar dilution
[5] = test system: Staphylococcus epidermidis 222; conditions: agar dilution
[6] = test system: Streptococcus faecium ATCC 9790; conditions: agar dilution
[7] = test system: Klebsiella pneumoniae X26; conditions: agar dilution
[8] = test system: Streptococcus sp. group D 2041; conditions: agar dilution
[9] = test system: Staphylococcus epidermidis EPI1; conditions: agar dilution
[10] = test system: Haemophilus influenzae C.L.; conditions: agar dilution
Escherichia coli N10 = conditions: agar dilution
Escherichia coli TEM = conditions: agar dilution
[11] = test system: Staphylococcus aureus NRRL B313; conditions: agar dilution
[12] = test system: Klebsiella pneumoniae KAE; conditions: agar dilution
[13] = test system: Staphylococcus aureus V41; conditions: agar dilution
[14] = test system: Streptococcus pneumoniae Park 1; conditions: agar dilution
[15] = test system: Haemophilus influenzae 76; conditions: agar dilution

Row | Compound | ED50 (Staphylococcus aureus) [mg/kg/2] | MIC [1] [µg/mL] | ED50 (Streptococcus pneumoniae) [mg/kg/2] | MIC (Escherichia coli EC14) | MIC [2] [µg/mL] | ED50 (Streptococcus pyogenes) [mg/kg/2] | MIC [3] | MIC [4] [µg/mL] | MIC [5] [µg/mL] | MIC [6] [µg/mL] | MIC [7] | MIC [8] [µg/mL] | MIC [9] [µg/mL] | MIC [10] | MIC (Escherichia coli N10) | MIC (Escherichia coli TEM) | MIC [11] [µg/mL] | MIC [12] | MIC [13] [µg/mL] | MIC [14] [µg/mL] | further results
1 | CCCCCCCC(=O)NC1(C)CC(OC2C(Oc3c4cc5cc3Oc3ccc(cc3Cl)C(O)C3NC(=O)C(NC(=O)C5NC(=O)C(CC(N)=O)NC(=O)C(NC(=O)C(CC(C)C)NC)C(O)c5ccc(c(Cl)c5)O4)c4ccc(O)c(c4)-c4c(O)cc(O)cc4C(C(=O)O)NC3=O)OC(CO)C(O)C2O)OC(C)C1O (stereo not drawn) [Compound 3, N^van --(1-oxo-n-octyl)vancomycin] | 6.9 | 2 (≈ 1.27 µM) | 4.8 | -- (not active at 128 mcg/ml) | 0.5 (≈ 0.317 µM) | 4.4 | -- (not active at 128 mcg/ml) | 2 (≈ 1.27 µM) | 2 (≈ 1.27 µM) | 2 (≈ 1.27 µM) | -- (not active at 128 mcg/ml) | 4 (≈ 2.54 µM) | 8 (≈ 5.08 µM) | -- (not active at 128 mcg/ml) | -- (not active at 128 mcg/ml) | -- (not active at 128 mcg/ml) | 1 (≈ 0.635 µM) | -- (not active at 128 mcg/ml) | 2 (≈ 1.27 µM) | 0.5 (≈ 0.317 µM) | MIC [15]: -- (not active at 128 mcg/ml)
2 | CCCCCCCCCC(=O)NC1(C)CC(OC2C(Oc3c4cc5cc3Oc3ccc(cc3Cl)C(O)C3NC(=O)C(NC(=O)C5NC(=O)C(CC(N)=O)NC(=O)C(NC(=O)C(CC(C)C)NC)C(O)c5ccc(c(Cl)c5)O4)c4ccc(O)c(c4)-c4c(O)cc(O)cc4C(C(=O)O)NC3=O)OC(CO)C(O)C2O)OC(C)C1O (stereo not drawn) [Compound 6, N^van-(1-oxo-n-Decyl)vancomycin] | 5 | 0.5 (≈ 0.312 µM) | 1.4 | -- (not active at 128 mcg/ml) | 0.5 (≈ 0.312 µM) | 2.9 | -- (not active at 128 mcg/ml) | 0.5 (≈ 0.312 µM) | 1 (≈ 0.624 µM) | 0.5 (≈ 0.312 µM) | -- (not active at 128 mcg/ml) | 1 (≈ 0.624 µM) | 2 (≈ 1.25 µM) | -- (not active at 128 mcg/ml) | -- (not active at 128 mcg/ml) | -- (not active at 128 mcg/ml) | 0.5 (≈ 0.312 µM) | -- (not active at 128 mcg/ml) | 0.5 (≈ 0.312 µM) | 1 (≈ 0.624 µM) | MIC [15]: -- (not active at 128 mcg/ml)
3 | C=CCCCCCCCCC(=O)NC1(C)CC(OC2C(Oc3c4cc5cc3Oc3ccc(cc3Cl)C(O)C3NC(=O)C(NC(=O)C5NC(=O)C(CC(N)=O)NC(=O)C(NC(=O)C(CC(C)C)NC)C(O)c5ccc(c(Cl)c5)O4)c4ccc(O)c(c4)-c4c(O)cc(O)cc4C(C(=O)O)NC3=O)OC(CO)C(O)C2O)OC(C)C1O (stereo not drawn) [Compound 9, N^van --(1-oxo-10-n-decenyl)vancomycin] | 3.7 | 0.5 (≈ 0.309 µM) | 1.8 | -- (not active at 128 mcg/ml) | 0.25 (≈ 0.155 µM) | 1.9 | -- (not active at 128 mcg/ml) | 0.5 (≈ 0.309 µM) | 0.5 (≈ 0.309 µM) | 0.25 (≈ 0.155 µM) | -- (not active at 128 mcg/ml) | 1 (≈ 0.619 µM) | 2 (≈ 1.24 µM) | -- (not active at 128 mcg/ml) | -- (not active at 128 mcg/ml) | -- (not active at 128 mcg/ml) | 0.5 (≈ 0.309 µM) | -- (not active at 128 mcg/ml) | 0.5 (≈ 0.309 µM) | 0.25 (≈ 0.155 µM) | MIC [15]: 128 µg/mL (≈ 79.2 µM)
4 | CCCCCCCCCCCC(=O)NC1(C)CC(OC2C(Oc3c4cc5cc3Oc3ccc(cc3Cl)C(O)C3NC(=O)C(NC(=O)C5NC(=O)C(CC(N)=O)NC(=O)C(NC(=O)C(CC(C)C)NC)C(O)c5ccc(c(Cl)c5)O4)c4ccc(O)c(c4)-c4c(O)cc(O)cc4C(C(=O)O)NC3=O)OC(CO)C(O)C2O)OC(C)C1O (stereo not drawn) [Compound 12, N^van --(1-oxo-n-dodecyl)vancomycin] | 6.8 | 0.5 (≈ 0.306 µM) | 0.9 | -- (not active at 128 mcg/ml) | 0.5 (≈ 0.306 µM) | 1.6 | -- (not active at 128 mcg/ml) | 0.5 (≈ 0.306 µM) | 0.5 (≈ 0.306 µM) | 0.5 (≈ 0.306 µM) | -- (not active at 128 mcg/ml) | 0.5 (≈ 0.306 µM) | 2 (≈ 1.23 µM) | -- (not active at 128 mcg/ml) | -- (not active at 128 mcg/ml) | -- (not active at 128 mcg/ml) | 0.25 (≈ 0.153 µM) | -- (not active at 128 mcg/ml) | 0.25 (≈ 0.153 µM) | 0.5 (≈ 0.306 µM) | MIC [15]: -- (not active at 128 mcg/ml)
5 | CCCCCCCCCCCCCC(=O)NC1(C)CC(OC2C(Oc3c4cc5cc3Oc3ccc(cc3Cl)C(O)C3NC(=O)C(NC(=O)C5NC(=O)C(CC(N)=O)NC(=O)C(NC(=O)C(CC(C)C)NC)C(O)c5ccc(c(Cl)c5)O4)c4ccc(O)c(c4)-c4c(O)cc(O)cc4C(C(=O)O)NC3=O)OC(CO)C(O)C2O)OC(C)C1O (stereo not drawn) [Compound 14, N^van --(1-oxo-n-tetradecyl)vancomycin] | 6.6 | 2 (≈ 1.21 µM) | 1.3 | -- (not active at 128 mcg/ml) | 2 (≈ 1.21 µM) | 1.4 | -- (not active at 128 mcg/ml) | 0.5 (≈ 0.301 µM) | 2 (≈ 1.21 µM) | 0.5 (≈ 0.301 µM) | -- (not active at 128 mcg/ml) | 0.5 (≈ 0.301 µM) | 8 (≈ 4.82 µM) | 128 µg/mL (≈ 77.1 µM) | -- (not active at 128 mcg/ml) | -- (not active at 128 mcg/ml) | 2 (≈ 1.21 µM) | -- (not active at 128 mcg/ml) | 2 (≈ 1.21 µM) | 2 (≈ 1.21 µM) | MIC [15]: 128 µg/mL (≈ 77.1 µM)
